Source: patent US20230210834A1, “RNA METHYLTRANSFERASE INHIBITOR, SCREENING METHOD THEREFOR, ANTI-CANCER AGENT EFFICACY ASSESSMENT MARKER, AND KIT FOR EFFECTIVELY PREDICTING FTSJ1 INHIBITOR” (National University Corporation Okayama University, priority 2019, published 2023)

Legend:
[1] = tested on: polyglutamine luciferase reporter; experiment: Screening: polyglutamine luciferase reporter assay in NUGC3 cells (luminescence % of DMSO); format: cell-based, human; conditions: NUGC3 cells, luminescence relative to DMSO, concentration not given
Method: (§1) Human gastric cancer cell line NUGC3 was cultured in a DMEM medium (high glucose with L-glutamine and phenol red, produced by FUJIFILM Wako Pure Chemical Corporation) containing 10% fetal bovine serum (produced by Thermo Fisher Scientific Inc.) and penicillin-streptomycin (produced by FUJIFILM Wako Pure Chemical Corporation) (this medium is simply referred to below as “DMEM+10% FBS+1×P/S”). Then, the NUGC3 cells were seeded in a 60-mm culture dish (produced by BioLite) so that the cells were 80% confluent after 24 hours. Subsequently, 5 μg of a reporter plasmid and 15 μL of a lipofection reagent (transIT-LT1, produced by Mirus Bio LLC) were mixed in 500 μL of Opti-MEM medium (produced by Thermo Fisher Scientific, Inc.) to form a complex, which was added to the medium in which the NUGC3 cells were cultured in the 60-mm culture dish. For use as the reporter plasmid, 5 μg of a polyglutamine luciferase reporter was introduced (in the polyglutamine luciferase reporter, a Renilla luciferase expressed in the IRES was located as an internal standard downstream of the sequence of a firefly luciferase sequence to which polyglutamine was added). Alternatively, a YAP/TAZ activity reporter was used by simultaneously introducing 3 μg of 8×GTIIC plasmid and 2 μg of a Renilla luciferase reporter as an internal standard. After another 24 hours, the cells were exfoliated with a 0.05 w/v % trypsin-0.53 mmol/l EDTA-4Na solution (produced by FUJIFILM Wako Pure Chemical Corporation), and then seeded in a 96-well plate (produced by BioLite) so that the cells were 80% confluent after 24 hours. Twenty-four hours after seeding in the 96-well plate, the medium in each well was replaced with 100 μL of a medium (DMEM+10% FBS+an antibiotic) containing 10 μM or 5 μM of a compound for evaluation. After another 24 hours, the medium containing the compound was removed, and the 96-well plate was transferred on ice. Each well was washed with 100 μL of phosphate buffer (PBS, produced by FUJIFILM Wako Pure Chemical Corporation). Thereafter, 20 μL of Passive Lysis Buffer (1×) contained in a Dual-Luciferase Reporter Assay System (produced by Promega Corporation) was added. The plate was then gently shaken for 15 minutes at room temperature to lyse the cells. After confirming that the cells were lysed, 10 μL of the lysate was transferred from each well to each corresponding well of a white 96-well plate (produced by Greiner Bio-one). To each well of the white 96-well plate was added 100 μL of a mixture of a Luciferase Assay Buffer II and Luciferase Assay Substrate contained in the Dual-Luciferase Reporter Assay System (produced by Promega Corporation), whereby the luminescence of the firefly luciferase was induced, and the luminescence intensity was detected with a microluminometer (produced by Berthold Japan K.K.). Subsequently, 100 μL of a mixture of Stop & Glo Buffer and Stop & Glo Substrate contained in the Dual-Luciferase Reporter Assay System (produced by Promega Corporation) was added, whereby the luminescence of firefly luciferase was quenched while the luminescence of Renilla luciferase was induced, and the luminescence intensity was detected with a microluminometer (produced by Berthold Japan K.K.) in a manner similar to the above. The ratio of the luminescence intensity of the firefly luciferase and the luminescence intensity of the Renilla luciferase was calculated, and the luminescence intensity (%) of the wells containing each compound was calculated with the luminescence intensity of the well containing DMSO (dimethyl sulfoxide, used as a solvent for the compound liquids) taken as 100%. […] Unless otherwise specified, the measured values in the table represent the results obtained by evaluation with the addition of 10 μM of each compound for evaluation.

YAP/TAZ = experiment: Screening: YAP/TAZ activity reporter (8xGTIIC plasmid) assay in NUGC3 cells (luminescence % of DMSO); format: cell-based, human; conditions: NUGC3 cells, luminescence relative to DMSO, concentration not given
Method: as §1

[2] = polyglutamine luciferase reporter
[3] = YAP/TAZ activity reporter (8×GTIIC)

| Structure (SMILES) | Polyglutamine [1, 2] | 8×GTIIC (YAP/TAZ; [3]) | Polyglutamine [1] | 8×GTIIC (YAP/TAZ) |
| --- | --- | --- | --- | --- |
| Cc1ccc(C)c(S(=O)(=O)CC2CCC(C3CC3)CC2)c1 (single isomer, unassigned) [SA005] | 76.08% | 90.78% |  |  |
| Cc1ccc(C)c(S(=O)(=O)C2CCC(CS(=O)(=O)c3ccccc3)CC2)c1 (single isomer, unassigned) [SA014] | 72.95% | 93.69% |  |  |
| Cc1ccc(C)c(S(=O)(=O)C2CCC(CS(=O)(=O)c3ccccc3)CC2)c1 (single isomer, unassigned) [SA015] | 60.36% | 69.21% |  |  |
| CCc1ccc(OC)cc1C1CC(c2ccc(C)cc2)=NC1S(=O)(=O)c1ccc(C)cc1 (stereo not shown) [PVZF0043] |  |  | 35.33% | 36.69% |
| CCc1cccc(C2CC(c3ccccc3)=NC2S(=O)(=O)c2ccccc2)c1CC (stereo not shown) [PVZF0046] |  |  | 47.04% | 54.68% |
| CCc1cccc(C2CC(c3cccc(C)c3)=NC2S(=O)(=O)c2ccccc2)c1CC (stereo not shown) [PVZF0049] |  |  | 67.85% | 91.32% |
| CCc1cccc(C2CC(c3ccccc3)=NC2S(=O)(=O)c2ccccc2C)c1CC (stereo not shown) [PVZF0050] |  |  | 58.65% | 106.2% |
| CCc1cccc(C2CC(c3ccc(C)cc3)=NC2S(=O)(=O)c2ccccc2C)c1CC (stereo not shown) [PVZF0051] |  |  | 40.74% | 36.59% |
| CCc1ccc(C2=NC(S(=O)(=O)c3ccccc3)C(c3cccc(CC)c3CC)C2)cc1CC (stereo not shown) [PVZF0052] |  |  | 71.62% | 54.38% |
| CCc1cc(OC)cc(C2=NC(S(=O)(=O)c3ccccc3)C(c3cccc(CC)c3CC)C2)c1 (stereo not shown) [PVZF0053] |  |  | 68.68% | 58.96% |
| CCc1ccc(C2=NC(S(=O)(=O)c3ccccc3)C(c3cccc(CC)c3CC)C2)c(CC)c1 (stereo not shown) [PVZF0054] |  |  | 56.4% | 49.48% |
| CCc1cc(CC)cc(C2=NC(S(=O)(=O)c3ccc(C)cc3)C(c3cccc(CC)c3CC)C2)c1 (stereo not shown) [PVZF0055] |  |  | 46.42% | 45.63% |
| CCc1cccc(C2CC(c3ccc(C)cc3)=NC2S(=O)(=O)c2ccccc2)c1CC (stereo not shown) [PVZF0056] |  |  | 48.33% | 53.76% |
| CCc1cccc(C2CC(c3ccc(C)cc3)=NC2S(=O)(=O)c2ccc(C)cc2)c1CC (stereo not shown) [PVZF0057] |  |  | 50.71% | 61.81% |
| CCc1cccc(C2CC(c3cccc(C)c3)=NC2S(=O)(=O)c2ccccc2C)c1CC (stereo not shown) [PVZF0058] |  |  | 54.21% | 66.66% |
| CCc1cccc(C2CC(c3ccc(C)cc3)=NC2S(=O)(=O)c2ccccc2C)c1CC (stereo not shown) [PVZF0059] |  |  | 43.94% | 38.46% |
| CCc1ccccc1C1CC(c2ccc(C)cc2)=NC1S(C)(=O)=O (stereo not shown) [PVZF0060] |  |  | 38.44% | 44.13% |
| CCc1cccc(C2CC(c3ccc(C)cc3)=NC2S(C)(=O)=O)c1 (stereo not shown) [PVZF0061] |  |  | 69.94% | 121.9% |
| Cc1ccc(C2=NC(S(=O)(=O)c3ccccc3C)C(c3cccc(C)c3)C2)cc1 (stereo not shown) [PVZF0062] |  |  | 54.91% | 73.79% |
| CCc1ccccc1C1CC(c2ccc(C)cc2)=NC1S(=O)(=O)c1ccccc1 (stereo not shown) [PVZF0063] |  |  | 43.6% | 56.3% |
| Cc1ccc(C2=NC(S(=O)(=O)c3ccccc3C)C(c3ccc(C)cc3)C2)cc1 (stereo not shown) [PVZF0064] |  |  | 58.28% | 93.3% |
| CCc1ccccc1C1CC(c2ccc(C)cc2)=NC1S(=O)(=O)c1ccccc1C (stereo not shown) [PVZF0065] |  |  | 48.96% | 67.6% |
| CCc1ccc(C2CC(c3ccc(C)cc3)=NC2S(=O)(=O)c2ccccc2)cc1CC (stereo not shown) [PVZF0066] |  |  | 56.14% | 65.56% |
